Laboratory results taken from US20190375787A1, “PEPTIDOMIMETICS AND THEIR USE IN THERAPY” (INSTYTUT […]. Z O.O., priority 2016, published 2019).
Square brackets hold non-standard residues; d marks the D form. Peptide text beside a SMILES is read from it. * marks the point of attachment. X1 = C(=Cc1ccccc1)CN1CCN(*)CC1

Tests used:
Assay type in all cases: cell-based
[1] = tested on: human pancreatic cancer cell line CFPAC-1; assay: MTS cell viability test on CFPAC-1 cells; details: 24 h incubation; for activity (cell viability) compared with gem and 5FU: CFPAC-1, concentrations 0.01-0.1 mM; for activity relative to the reference drugs (gem, 5FU): CFPAC-1, higher concentrations (above 0.1 mM)
Text: Phenylalanyl-trans-1-cinnamylpiperazine was acylated with t-Boc-Tyr-D-Ala using TBTU/DIPEA methodology. The reaction product was precipitated with 10% NaHCO3 and separated from the reaction mixture by filtration. The solid was washed three times with water, until neutral pH of the filtrate was reached. The t-butyloxycarbonyl group was removed using TFA:DCM (1:1). The crude product was purified by preparative HPLC in a gradient of water/methanol with addition of 0.1% trifluoroacetic acid. The counterion was changed to Cl^− using the Dowex ion-exchange resin. The purified product, tyrosyl-D-alanyl-phenylalanyl-cinnamylpiperazine hydrochloride (further called TyrDAlaPheCyn) was tested on human pancreatic cancer cell line CFPAC-1, in comparison to commercial drugs, gemcitabine (gem) and 5-fluorouracil (5FU). The cells were grown on IMDM medium supplemented with 10% (v/v h.i. FBS, 2 mM L-glutamine and 1% (v/v) penicillin-streptomycin, in 37° C., in humidified atmosphere, with 5% CO2. The cells were seeded in 96 wells plate (3×10^3 cells per well) and incubated for 24 h (37° C., 5% CO2) in the culture medium. Next, TyrDAlaPheCyn, gem and 5FU in 5% DMSO solutions were added, to give in wells concentrations 0 (5% DMSO); 0.01; 0.05; 0.1; 0.5; and 1 mM. The plates were incubated for 24 h (37° C., 5% CO2). Cell viability was determined using colorimetric test MTS (3-(4,5-dimethylthiazol-2-yl)-5-(3-carboxymethoxyphenyl)-2-(4-sulfophenyl)-2H-tetrazolium). To each well, 20 μl of the reagent was added, and the plates were incubated in the same conditions for 1 h. The absorbance intensity at 490 nm was read. […] However, at higher concentrations, activity of the tested compound was even 4 times higher than for the reference drugs.
Tryptophyl-trans-1-cinnamylpiperazine was acylated with t-Boc-Tyr-D-Ala using TBTU/DIPEA methodology. The reaction product was precipitated with 10% NaHCO3 and separated from the reaction mixture by filtration. The solid was washed three times with water, until neutral pH of the filtrate was reached. The t-butyloxycarbonyl group was removed using TFA:DCM (1:1). […] The cells were grown on DMDM medium supplemented with 10% (v/v h.i. FBS, 2 mM L-glutamine and 1% (v/v) penicillin-streptomycin, in 37° C., in humidified atmosphere, with 5% CO2. The cells were seeded in 96 wells plate (3×10^3 cells per well) and incubated for 24 h (37° C., 5% CO2) in the culture medium. Next, TyrDAlaTrpCyn, gem and 5FU in 5% DMSO solutions were added, to assure in wells concentrations 0 (5% DMSO); 0.01; 0.05; 0.1; 0.5; and 1 mM. The plates were incubated for 24 h (37° C., 5% CO2). Cell viability was determined using colorimetric test MTS (3-(4,5-dimethylthiazol-2-yl)-5-(3-carboxymethoxyphenyl)-2-(4-sulfophenyl)-2H-tetrazolium). […] The absorbance intensity at 490 nm was read. […]

[2] = tested on: SW620 (intestinal cancer); assay: Cell growth, colorimetric MTT or XTT, SW620
Experimental: (§1) Influence of the compounds on the cell growth was evaluated by colorimetric method, using MTT or XTT reagent, values of IC50 were determined. The tests were based on reduction of the salt by mitochondrial dehydrogenase from metabolically active cells. The colored product of the reaction was determined colorimetrically, and in result the number of living cells was assigned.

[3] = tested on: SW480 (intestinal cancer) cells; assay: Inhibition of cell migration (transwell insert), SW480; details: SW480, IC50 concentration
Experimental: (§2) Inhibition of cell migration was evaluated using 24-well plates with PET (polyethylene terephthalate) membrane transwell insert. The experiment was performed using IC50 concentrations of the tested compounds, and migration of the cells, that means, the number of the cells passing through the membrane to the bottom side of the membrane, was observed. The cells which passed the membrane, were stained with crystal violet and counted.

[4] = tested on: HT29 (intestinal cancer) cells; assay: Inhibition of cell migration (transwell insert), HT29; details: HT29, IC50 concentration, concentrations below 400 μM
Experimental: as §2

[5] = tested on: Colo205 (intestinal cancer) cells; assay: Inhibition of cell migration (transwell insert), Colo205; details: Colo205, IC50 concentration, concentrations below 400 μM
Experimental: as §2

[6] = tested on: SW620 (intestinal cancer) cells; assay: Inhibition of cell migration (transwell insert), SW620; details: SW620, IC50 concentration
Experimental: as §2

[7] = tested on: HT29 (intestinal cancer); assay: Cell growth, colorimetric MTT or XTT, HT29
Experimental: as §1

[8] = tested on: Colo205 (intestinal cancer); assay: Cell growth, colorimetric MTT or XTT, Colo205
Experimental: as §1

Structure (SMILES)	activity (cell viability) compared with gem and 5FU [1]	activity relative to the reference drugs (gem, 5FU) [1] [times]	IC50 [2] [µM]	inhibition of cell migration [4] [%]	inhibition of cell migration [5] [%]	inhibition of cell migration ([3]; concentrations below 400 μM) [%]	other results
C[C@@H](NC(=O)[C@@H](N)Cc1ccc(O)cc1)C(=O)N[C@@H](Cc1c[nH]c2ccccc12)C(=O)N1CCN(CC=Cc2ccccc2)CC1.Cl [TyrDAlaTrpCyn, tyrosyl-D-alanyl-tryptophyl-cinnamylpiperazine hydrochloride]	similar	4	–	–	–	–	–
C[C@H](O)[C@@H](NC(=O)[C@@H](N)Cc1ccc(O)cc1)C(=O)NCC(=O)N[C@@H](Cc1ccccc1)C(=O)N1CCN(CC=Cc2ccccc2)CC1.Cl [TyrDThrGlyPheCyn, tyrosyl-D-threonyl-glicyl-phenylalanyl-1-cinnamylpiperazine hydrochloride] (H-Y[dT]GF-X1)	–	–	< 650	–	–	–	inhibition of cell migration ([3]; concentrations below 500 μM): ≤ 45%
C[C@@H](NC(=O)[C@@H](N)Cc1ccc(O)cc1)C(=O)N[C@@H](Cc1ccccc1)C(=O)N1CCN(CC=Cc2ccccc2)CC1.Cl [TyrDAlaPheCyn, tyrosyl-D-alanyl-phenylalanyl-cinnamylpiperazine hydrochloride]	similar	4	–	–	–	–	–
C[C@@H](NC(=O)[C@@H](N)Cc1ccc(O)cc1)C(=O)NCC(=O)N[C@@H](Cc1c[nH]c2ccccc12)C(=O)N1CCN(CC=Cc2ccccc2)CC1.Cl [TyrDAlaGlyTrpCyn, tyrosyl-D-alanyl-glicyl-tryptophyl-1-cinnamylpiperazine hydrochloride] (H-Y[dA]GW-X1)	–	–	< 500	≤ 50	≤ 40	≤ 30	inhibition of cell migration ([6]; concentrations below 500 μM): ≤ 30%
C[C@H](O)[C@@H](NC(=O)[C@@H](N)Cc1ccc(O)cc1)C(=O)NCC(=O)N[C@@H](Cc1c[nH]c2ccccc12)C(=O)N1CCN(CC=Cc2ccccc2)CC1.Cl [TyrDThrGlyTrpCyn, tyrosyl-D-threonyl-glicyl-tryptophyl-1-cinnamylpiperazine hydrochloride] (H-Y[dT]GW-X1)	–	–	< 600	–	–	–	IC50 [7]: < 600 µM; IC50 [8]: < 650 µM; inhibition of cell migration ([3]; concentrations below 600 μM): ≤ 40%; inhibition of cell migration ([6]; concentrations below 600 μM): ≤ 30%
C[C@@H](NC(=O)[C@@H](N)Cc1ccc(O)cc1)C(=O)NCC(=O)N[C@@H](Cc1ccccc1)C(=O)N1CCN(CC=Cc2ccccc2)CC1.Cl [TyrDAlaGlyPheCyn, tyrosyl-D-alanyl-glicyl-phenylalanyl-1-cinnamylpiperazine hydrochloride]	–	–	< 450	≤ 70	≤ 60	≤ 60	inhibition of cell migration ([6]; concentrations below 450 μM): ≤ 40%
